Results on 1 cell line are retold here after the supplement of paper PMC10307832.

Common to all, as to assay: relative viability (nuclei count vs DMSO), 5 days (fraction); higher = more cells survive
Compound in experiment [1]: O=C(C[C@H]1NCCC[C@@H]1O)Cn1cnc2cc(Br)c(Cl)cc2c1=O (racemic) [Halofuginone] + Cc1cc(Nc2cc(N3CCN(C)CC3)nc(Sc3ccc(NC(=O)C4CC4)cc3)n2)n[nH]1 [Tozasertib] (partner 0.1 µM)
The essentials: (§1)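 Nuclei were stained with Hoechst during a one-step fixation (final 0.05% Triton X-100, 1% formaldehyde, 1 ug/ml Hoechst) carried out 5 days after dosing, then counted on 4× images. The cells, lung cancer lines in 1536-well plates, had been dosed by pin tool the day after seeding with one drug alone or a fixed anchor-drug dose plus five library-drug doses (not always all listed) in √10 steps. Relative viability is the nuclei count in treated wells divided by that in vehicle wells, and each value is the median of duplicate plates.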

Compound in experiment [2]: O=C(C[C@H]1NCCC[C@@H]1O)Cn1cnc2cc(Br)c(Cl)cc2c1=O (racemic) [Halofuginone] + Cc1nc(Nc2ncc(C(=O)Nc3c(C)cccc3Cl)s2)cc(N2CCN(CCO)CC2)n1 [Dasatinib] (partner 0.075 µM)
The essentials: as §1

Compound in experiment [3]: COc1cc2c(Oc3ccc4[nH]c(C)cc4c3F)ncnc2cc1OCCCN1CCCC1 [Cediranib] + O=C(CCCCCCC(=O)Nc1ccccc1)NO [Vorinostat] (partner 1 µM)
The essentials:
as §1

Compound in experiment [4]: COc1cc2c(Oc3ccc4[nH]c(C)cc4c3F)ncnc2cc1OCCCN1CCCC1 [Cediranib] + N=C(N)NC(=N)NCCc1ccccc1 [Phenformin] (partner 250 µM)
The essentials:
as §1

Consider UMC-11, for which the relative viability in experiment [1] (first compound 0.001 µM) was 0.219; in experiment [1] (first compound 0.003162 µM), 0.196; in experiment [1] (first compound 0.01 µM), 0.189; in experiment [1] (first compound 0.03162 µM), 0.205; in experiment [1] (first compound 0.1 µM), 0.209; in experiment [2] (first compound 0.001 µM) it was 0.472. Moreover, the relative viability in experiment [2] (first compound 0.003162 µM) came to 0.427; in experiment [2] (first compound 0.01 µM) it was 0.407; in experiment [2] (first compound 0.03162 µM) it was 0.357; in experiment [2] (first compound 0.1 µM), 0.293; in experiment [3] (first compound 0.04 µM), 0.396; in experiment [3] (first compound 0.1265 µM), 0.256. In addition, the relative viability in experiment [3] (first compound 0.4 µM) was determined as 0.345; in experiment [3] (first compound 1.265 µM), 0.392; in experiment [3] (first compound 4 µM), 0.412; in experiment [4] (first compound 0.04 µM), 0.342; in experiment [4] (first compound 0.4 µM), 0.346; in experiment [4] (first compound 4 µM) it was 0.3.
